Values quoted from earlier work as cited in patent US20180271826A1, “DRY POWDERS OF CANNABINOIDS AND METHODS FOR PREPARING DRY POWDERS” (COLORADO CAN LLC, priority 2017, published 2018).

Key:
[1] = burning of cannabis cigarettes (Elzinga 2015)
[2] = cannabis resin, 4 years, 4° C. in the dark (Trofin 2012)
[3] = transdermal patch (Stinchcomb 2004)
[4] = oral ingestion (Ohlsson 1980)
[5] = plant material, room temperature (20° C.) near a source of light, a little under two years (Fairbarn 1976)

| SMILES | theoretically present amount recovered in total smoke and remaining ash [1] | original content degraded [2] | peak THC concentration [3] | time of peak THC concentration [3] | time of peak THC concentrations after dosing [4] | original THC content remaining [5] |
| --- | --- | --- | --- | --- | --- | --- |
| C=C(C)[C@@H]1CCC(C)=C[C@H]1c1c(O)cc(CCCCC)cc1O [CBD, cannabidiol] | 38.4% | 55.75% |  |  |  |  |
| CCCCCc1cc(O)c2c(c1)OC(C)(C)[C@@H]1CCC(C)=C[C@@H]21 [THC, Δ9-tetrahydrocannabinol] | 36.9% | 95.77% | 4.4 ng/mL | 1.4 h | 1 to 5 h | 37% |
